From paper PMC12363342, “Investigating the N-terminal linker histone H1 subtypes as substrates for JmjC lysine demethylases” (RSC Chemical Biology, 2025)
Square brackets hold non-standard residues; d marks the D form. Ends that are not written are not given here. Lys(Me3) = C[N+](C)(C)CCCC[C@H](N)C(=O)O

Target: T1, KDM4D (Homo sapiens, UniProt Q6B0I6)
T1 construct: KDM4AM1-L359,[38]; KDM4DM1-L359,[39]; KDM4EM1-R336,[30]; His6 (N); made in house; host or cells: Escherichia coli
T1 sequence (Q6B0I6 1-359): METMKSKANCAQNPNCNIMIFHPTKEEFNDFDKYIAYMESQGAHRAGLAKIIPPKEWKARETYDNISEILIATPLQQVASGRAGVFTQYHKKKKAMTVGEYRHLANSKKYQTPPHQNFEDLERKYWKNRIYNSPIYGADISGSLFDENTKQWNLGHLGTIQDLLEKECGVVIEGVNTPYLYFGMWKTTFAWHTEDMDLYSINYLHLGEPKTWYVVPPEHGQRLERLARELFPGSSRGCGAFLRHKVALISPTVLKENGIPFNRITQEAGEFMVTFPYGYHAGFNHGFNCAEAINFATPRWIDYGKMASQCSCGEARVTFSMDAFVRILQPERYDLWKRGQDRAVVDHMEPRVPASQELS
Assay: time-course 1H NMR assay of succinate production, KDM4D
Type: biochemical
Conditions: KDM4D 10 μM, 2OG 400 μM, peptide 400 μM; for oxidation of H1 peptide by KDM4D (succinate production arising from 2OG oxidation): 1H NMR 700 MHz, 298 K, Fe(II) 100 μM, L-ascorbate 1 mM, 50 mM Tris-d11 pH 7.5, 60 min, two independent experiments; for succinate production rate with KDM4D, relative: 1H NMR time course, pH 7.5, compared to H1.4K25me3
Excerpt: Fig. 6 Time-course ^1H NMR analysis for reactions of KDM4D with H1 peptides. (A) KDM4D-catalysed succinate production for H1.3K24me3 (turquoise), H1.4K25me3 (raspberry), and H1.5K26me3 (khaki) compared to that without peptides (black). (B) KDM4D in the presence of 2OG without the H1 peptide; note that only low-level succinate production is observed. (C) Production of succinate measured for KDM4D/H1.3K24me3 over time, as evidenced by increasing integration of the singlet at δ^1H 2.31 ppm (corresponding to the succinate methylenes). Assay conditions are described in the Experimental details section.
NMR spectra were acquired at 298 K using a Bruker AVIII 700 MHz NMR spectrometer equipped with a TCI helium-cooled CryoProbe. Data were processed using TopSpin v.3.6.2 software. Signal intensities were calibrated relative to TSP, δH 0 ppm, and the chemical shifts (ppm) are relative to the resonance of the solvent, δH 4.7 ppm. Assay mixtures contained KDM4D (10 μM), 2OG (400 μM), H1_20–34 peptide (400 μM), Fe(II) ammonium sulfate (100 μM), L-ascorbate (1 mM) and internal standard, 3-(trimethylsilyl)-2,2,3,3-tetradeuteropropionic acid (TSP, 800 μM) in 50 mM Tris-d11, pH 7.5. Aqueous stocks of 2OG, Fe(II) ammonium sulfate and L-ascorbate were prepared fresh on the day of testing. Samples were transferred to 3-mm diameter MATCH NMR tubes (CortecNet) and monitored by ^1H excitation sculpting with baseline optimisation using 16 transients. The time lapse between sample mixing and data acquisition was 6–7 min. The spectra were acquired every 2 min over 60 min. Starting material and product concentrations were quantified relative to the TSP concentration. Samples from two independent experiments were analysed by NMR spectroscopy.

With “KKKA[Lys(Me3)]KAGATAGKRK [Peptide H1.3K24me3, 15-mer linker histone H1.3 residues 20-34 peptide, tri-methylated K24]” the “oxidation of H1 peptide by KDM4D (succinate production arising from 2OG oxidation)” value (from here on “oxidation of H1 peptide by KDM4D”) was “clear evidence for oxidation” and the “succinate production rate with KDM4D, relative” value was “slightly slower succinate production compared to H1.4K25me3”.
For “KKKAR[Lys(Me3)]SAGAAKRKA [Peptide H1.4K25me3, 15-mer linker histone H1.4 residues 20-34 peptide, tri-methylated K25]”, the “oxidation of H1 peptide by KDM4D” value was “clear evidence for oxidation”.
In the case of “KKKATK[Lys(Me3)]AAGAGAAK [Peptide H1.5K26me3, 15-mer linker histone H1.5 residues 20-34 peptide, tri-methylated K26]”, the “oxidation of H1 peptide by KDM4D” value is reported as “clear evidence for oxidation” and the “succinate production rate with KDM4D, relative” value is reported as “slightly slower succinate production compared to H1.4K25me3”.
